Read-outs that look alike come from different tables or passages of the source.

The format of this experiment is in vivo, rat. On the procedure:
Distilled water and saline were administered as vehicle to rats in each control group. […] Plasma cytokine levels were measured by ELISA or multiplex immunoassay; common metabolites and lipid mediators were analyzed by GC-MS/MS and LC-MS/MS, respectively.
Pathway maps of lipid mediators were created by using CellDesigner 4.4 software (http://www.celldesigner.org). We evaluated the effects of the treatments on specific lipid mediators and categorized them according to COX, CYP and LOX pathways by Fisher’s exact test. The proinflammatory and anti-inflammatory indices were analyzed as described by Tam et al. with modification.[22]

Where [1] appears, read: PM/P (polyI:C+maoto vs polyI:C), 2h.
Setting [2] is: PM/P (polyI:C+maoto vs polyI:C), 4h.

`CCCCCC(=O)/C=C/C=C\CCCCCCCC(=O)O` [13-KODE]: the “log2FC of plasma level” value is, setting by setting: (M/C (maoto vs control), 2h) 0.39; (M/C (maoto vs control), 4h) -1.68; (P/C (polyI:C vs control), 2h) -0.08; (P/C (polyI:C vs control), 4h) 0.50; under setting [1], -0.15; under setting [2], -1.45.

For `CCCCCC(O)C(O)C/C=C\C/C=C\C/C=C\CCCC(=O)O` (stereo not drawn) [14,15-DHET], the “log2FC of plasma level” value is listed as 0.79 (M/C (maoto vs control), 2h); 0.01 (M/C (maoto vs control), 4h); 0.07 (P/C (polyI:C vs control), 2h); 0.40 (P/C (polyI:C vs control), 4h); 0.22 under setting [1]; -0.41 under setting [2].

As for `CC/C=C\CC(O)C(O)C/C=C\C/C=C\C/C=C\CCCC(=O)O` (stereo not drawn) [14,15-DiHETE], the “log2FC of plasma level” value runs as follows: (M/C (maoto vs control), 2h) 0.41; (M/C (maoto vs control), 4h) -0.20; (P/C (polyI:C vs control), 2h) 0.14; (P/C (polyI:C vs control), 4h) 0.00; under setting [1], -0.13; under setting [2], -0.17.

Turning to `CCCCCC1OC1C/C=C\C/C=C\C/C=C\CCCC(=O)O` (stereo not drawn) [14,15-EET], the “log2FC of plasma level” value by setting is: (M/C (maoto vs control), 2h) -0.23; (M/C (maoto vs control), 4h) -0.59; (P/C (polyI:C vs control), 2h) -0.40; (P/C (polyI:C vs control), 4h) 0.01; under setting [1], 0.02; under setting [2], -0.47.

Turning to `CC/C=C\C/C=C\CC(O)/C=C/C=C\C/C=C\C/C=C\CCC(=O)O` (stereo not drawn) [14-HDoHE], the “log2FC of plasma level” value is, setting by setting: (M/C (maoto vs control), 2h) 0.82; (M/C (maoto vs control), 4h) -0.39; (P/C (polyI:C vs control), 2h) -0.32; (P/C (polyI:C vs control), 4h) 0.40; under setting [1], 0.58; under setting [2], -0.58.

For the compound `CCCCCC(O)/C=C/C=C\CCCCCCCCCC(=O)O` (stereo not drawn) [15-HEDE], the “log2FC of plasma level” value by setting is: (M/C (maoto vs control), 2h) 0.33; (M/C (maoto vs control), 4h) -0.76; (P/C (polyI:C vs control), 2h) -0.05; (P/C (polyI:C vs control), 4h) 0.71; under setting [1], 0.14; under setting [2], -1.18.

In the case of `CC/C=C\CC(O)/C=C/C=C\C/C=C\C/C=C\CCCC(=O)O` (stereo not drawn) [15-HEPE], the “log2FC of plasma level” value is given as 0.47 (M/C (maoto vs control), 2h); -0.29 (M/C (maoto vs control), 4h); 0.28 (P/C (polyI:C vs control), 2h); 0.06 (P/C (polyI:C vs control), 4h); -0.02 under setting [1]; -0.55 under setting [2].

For the compound `CCCCC[C@H](O)/C=C/C=C\C/C=C\C/C=C\CCCC(=O)O` [15-HETE], the “log2FC of plasma level” value was -0.07 (M/C (maoto vs control), 2h); -0.49 (M/C (maoto vs control), 4h); -0.12 (P/C (polyI:C vs control), 2h); 0.56 (P/C (polyI:C vs control), 4h); -0.02 under setting [1]; -0.78 under setting [2].

For `CCCCCC(O)/C=C/C=C\C/C=C\CCCCCCC(=O)O` (stereo not drawn) [15-HETrE], the “log2FC of plasma level” value is recorded as 0.77 (M/C (maoto vs control), 2h); 0.00 (M/C (maoto vs control), 4h); 0.20 (P/C (polyI:C vs control), 2h); 1.11 (P/C (polyI:C vs control), 4h); 0.25 under setting [1]; -0.98 under setting [2].

Take `CCCCCC(=O)/C=C/C=C\CCCCCCCCCC(=O)O` [15-KEDE]: the “log2FC of plasma level” value (M/C (maoto vs control), 2h) is recorded as 0.13; the “log2FC of plasma level” value (M/C (maoto vs control), 4h) is on record as -0.62; the “log2FC of plasma level” value (P/C (polyI:C vs control), 2h) is listed as -0.26; the “log2FC of plasma level” value (P/C (polyI:C vs control), 4h) turned out to be 0.83; the “log2FC of plasma level” value under setting [1] came to 0.21; the “log2FC of plasma level” value under setting [2] was -1.15.

Take `CCCCCC(=O)/C=C/[C@H]1[C@H](O)CC(=O)[C@@H]1C/C=C\CCCC(=O)O` [15-keto-PGE2]: the “log2FC of plasma level” value is, setting by setting: (M/C (maoto vs control), 2h) -0.28; (M/C (maoto vs control), 4h) -0.61; (P/C (polyI:C vs control), 2h) -0.15; (P/C (polyI:C vs control), 4h) 0.64; under setting [1], -0.07; under setting [2], -1.08.

The values are drawn from publication PMC5654968 (NPJ Systems Biology and Applications, 2017).
